Results on one compound are retold here after ChEMBL document CHEMBL4732267, “Novel Substituted Exomethylene-oxindoles as HPK1 Inhibitors” (ACS Med Chem Lett, 2021).

The target of this assay is Mitogen-activated protein kinase kinase kinase kinase 1 (Homo sapiens, UniProt Q92918). Description: Inhibition of recombinant human HPK1 expressed in baculovirus infected insect cells using SRKS1 peptide as substrate incubated for 15 mins followed by substrate addition and measured after 3 hrs by TR-FRET assay.
Chain of Mitogen-activated protein kinase kinase kinase kinase 1 (Q92918 whole entry): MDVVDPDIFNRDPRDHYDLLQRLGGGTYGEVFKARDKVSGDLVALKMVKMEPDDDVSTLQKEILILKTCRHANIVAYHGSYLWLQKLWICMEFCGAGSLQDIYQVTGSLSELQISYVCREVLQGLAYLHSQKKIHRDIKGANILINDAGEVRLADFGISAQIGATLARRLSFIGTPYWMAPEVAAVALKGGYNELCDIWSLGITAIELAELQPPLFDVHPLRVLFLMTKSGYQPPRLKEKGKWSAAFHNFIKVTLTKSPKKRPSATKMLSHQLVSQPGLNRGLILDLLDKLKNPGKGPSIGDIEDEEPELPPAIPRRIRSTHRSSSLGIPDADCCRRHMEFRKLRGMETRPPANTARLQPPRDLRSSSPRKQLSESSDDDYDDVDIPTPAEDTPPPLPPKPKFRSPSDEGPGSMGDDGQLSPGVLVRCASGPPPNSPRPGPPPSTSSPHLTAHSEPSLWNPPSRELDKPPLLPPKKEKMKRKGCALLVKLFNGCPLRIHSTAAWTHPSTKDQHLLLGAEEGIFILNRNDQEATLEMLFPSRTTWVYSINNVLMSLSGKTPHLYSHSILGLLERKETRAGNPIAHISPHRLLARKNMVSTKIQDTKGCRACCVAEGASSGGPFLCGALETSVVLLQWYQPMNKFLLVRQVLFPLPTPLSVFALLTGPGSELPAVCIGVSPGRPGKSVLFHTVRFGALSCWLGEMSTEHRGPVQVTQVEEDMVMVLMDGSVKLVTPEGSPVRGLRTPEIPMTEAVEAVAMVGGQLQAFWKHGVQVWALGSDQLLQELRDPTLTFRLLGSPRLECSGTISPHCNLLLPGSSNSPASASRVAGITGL

Regarding `Cc1c(-c2cc(F)c3c(c2)/C(=C/c2ccc(C4CC4)[nH]2)C(=O)N3)cnc2c1NCCO2`, the IC50 came to 0.05 nM.
